Assays:
[1] = system: MCL-1 mRNA in MV-4-11 cells; experiment: RT-PCR of MCL-1 mRNA in MV-4-11 cells; assay type: cell-based
Procedure: An AML cell line, MV-4-11, expresses MCL-1. MCL-1 is a key anti-apoptotic protein in MV-4-11 cells. Alvocidib, a CDK9 inhibitor, lowers the expression of MCL-1 mRNA, which is already well documented in the literature. […] MV-4-11 cells were treated with alvocidib for 2 hrs in vitro. Following treatment, cells were harvested and prepared using a standard real time PCR (RT-PCR) assay for detection of MCL-1 mRNA to probe for changes relative to controls.
The relative expression of MCL-1 mRNA was measured at 0.5-16 hour time points after dosing with 100 nM of alvocidib.
Following treatment, cells were harvested and prepared using standard RT-PCR assay for detection of MCL-1 mRNA expression.

MCL-1 mRNA in A549 cells = experiment: RT-PCR of MCL-1 mRNA in A549 cells; assay type: cell-based, human; details: A549, alvocidib 0-8 μM, 2 hrs, FIG. 8
Procedure: The A549 cell line is a human adenocarcinoma cell line, which expresses MCL-1. […] A549 cells were treated with alvocidib for 2 hrs in vitro. Following treatment, cells were harvested and prepared using a standard RT-PCR assay for detection of MCL-1 mRNA to probe for changes relative to controls.

[2] = system: MCL-1, Bcl-xL, and Bcl-2 in A549 cells; experiment: Immunoblotting of MCL-1, Bcl-xL, Bcl-2 in A549 cells; assay type: cell-based, human; details: A549, 350 nM
Procedure: The relative expression of MCL-1, Bcl-xL, and Bcl-2 was measured at 0-96 hour time points after dosing with 350 nM of alvocidib. In one group, after 24 hours of treatment, media was removed and replaced with fresh media […] (i.e., a wash step; see FIG. 9A).
A549 cells were treated with 350 nM alvocidib in vitro for the times indicated in FIG. 9A-B. Following treatment (and wash step as applicable), cells were harvested and prepared using standard immunoblotting techniques for detection of MCL-1, Bcl-xL, and Bcl-2 expression.
The relative expression of MCL-1, Bcl-xL, and Bcl-2 was measured at 0-96 hour time points after dosing with 350 nM of alvocidib.
Cells were treated 3 times (three 24 hour periods, broken by two 24 hour breaks) with 350 nM alvocidib in vitro. Following treatment, cells were harvested and prepared using standard immunoblotting techniques for detection of MCL-1, Bcl-xL, and Bcl-2 expression.

[3] = system: MCL-1, Bcl-xL, and Bcl-2 in MV-4-11 cells; experiment: Immunoblotting of MCL-1, Bcl-xL, Bcl-2 in MV-4-11 cells; assay type: cell-based
Procedure: The dose dependence is observed by monitoring the relative expression of MCL-1 compared to β-actin when cells are dosed with alvocidib at concentrations of 0-8 μM. MV4-11 cells were treated with alvocidib for 2 hrs in vitro. Following treatment, cells were harvested and prepared using standard immunoblotting techniques for detection of MCL-1 to probe for changes relative to β-actin.
The time dependence is observed by monitoring the relative expression of MCL-1, Bcl-xL, and Bcl-2 compared β-actin over time. The relative expression of MCL-1, Bcl-xL, and Bcl-2 was measured at 1-96 hour time points after dosing with 80 nM of alvocidib.
Following treatment, cells were harvested and prepared using standard immunoblotting techniques for detection of MCL-1, Bcl-xL, and Bcl-2 expression.

N-Myc in SK-N-AS cells = experiment: Immunoblotting of N-Myc in SK-N-AS cells; assay type: cell-based, human; details: 300 nM, 1-24 hour, FIG. 11
Procedure: The SK-N-AS cell line is a human neuroblastoma cell line that expresses N-Myc, which is a key oncogenic protein. […] The time dependence is observed by monitoring the relative expression of N-Myc compared β-actin over time. The relative expression of N-Myc was measured at 1-24 hour time points after dosing with 300 nM of alvocidib.
Following treatment, cells were harvested and prepared using standard immunoblotting techniques for detection of N-Myc expression.

[4] = system: MCL-1, Bcl-xL, and Bcl-2 in Panc-1 cells; experiment: Immunoblotting of MCL-1, Bcl-xL, Bcl-2 in Panc-1 cells; assay type: cell-based, human; details: Panc-1, 730 nM
Procedure: The time dependence is observed by monitoring the relative expression of MCL-1, Bcl-xL, and Bcl-2 compared β-actin over time. The relative expression of MCL-1, Bcl-xL, and Bcl-2 was measured at 0-96 hour time points after dosing with 730 nM of alvocidib. In one group, after 24 hours of treatment, media was removed and replaced with fresh media containing 730 nM alvocidib (i.e., a wash step; see FIG. 13A). Panc-1 cells were treated with 730 nM alvocidib in vitro for the times indicated in FIG. 13A-B. Following treatment (and wash step as applicable), cells were harvested and prepared using standard immunoblotting techniques for detection of MCL-1, Bcl-xL, and Bcl-2 expression. […] The time dependence is observed by monitoring the relative expression of MCL-1, Bcl-xL, and Bcl-2 compared β-actin over time. The relative expression of MCL-1, Bcl-xL, and Bcl-2 was measured at 0-96 hour time points after dosing with 730 nM of alvocidib. Cells were treated 3 times (three 24 hour periods, broken by two 24 hour breaks) with 730 nM alvocidib in vitro. Following treatment, cells were harvested and prepared using standard immunoblotting techniques for detection of MCL-1, Bcl-xL, and Bcl-2 expression.

[5] = system: MCL-1, Bcl-xL, and Bcl-2 in Yugen8 cells; experiment: Immunoblotting of MCL-1, Bcl-xL, Bcl-2 in Yugen8 cells; assay type: cell-based; details: Yugen8, 280 nM
Procedure: The time dependence is observed by monitoring the relative expression of MCL-1, Bcl-xL, and Bcl-2 compared β-actin over time. The relative expression of MCL-1, Bcl-xL, and Bcl-2 was measured at 0-96 hour time points after dosing with 280 nM of alvocidib. In one group, after 24 hours of treatment, media was removed and replaced with fresh media containing 280 nM alvocidib (i.e., a wash step; see FIG. 15A). Yugen8 cells were treated with 280 nM alvocidib in vitro for the times indicated in FIG. 15A-B. Following treatment (and wash step as applicable), cells were harvested and prepared using standard immunoblotting techniques for detection of MCL-1, Bcl-xL, and Bcl-2 expression. […] The time dependence is observed by monitoring the relative expression of MCL-1, Bcl-xL, and Bcl-2 compared β-actin over time. The relative expression of MCL-1, Bcl-xL, and Bcl-2 was measured at 0-96 hour time points after dosing with 280 nM of alvocidib. Cells were treated 3 times (three 24 hour periods, broken by two 24 hour breaks) with 280 nM alvocidib in vitro. Following treatment, cells were harvested and prepared using standard immunoblotting techniques for detection of MCL-1, Bcl-xL, and Bcl-2 expression.

MCL-1 in MV-4-11 cells = experiment: MCL-1 immunoblotting in the ACM (or FLAM) regimen modeled in vitro; assay type: cell-based
From the text: (§1) Following the treatment, cells were harvested and prepared using standard immunoblotting techniques for detection of MCL-1.

MV-4-11 cells = experiment: 24 hour EC50 in MV-4-11 cells; assay type: cell-based; details: Homo sapiens, MV4-11, read-out: 24 hour EC 50
From the text: as §1

EC50 (MV-4-11 cells)	SMILES	time post-treatment at which MCL-1 mRNA expression was reduced ([1]; MV-4-11, 100 nM)	relative expression of MCL-1 mRNA compared controls over time ([1]; MV-4-11, 100 nM, 0.5-16 hour, FIG. 7B)	relative expression of MCL-1 mRNA compared to controls ([1]; MV-4-11, alvocidib 0-8 μM, 2 hrs, FIG. 7A)	relative expression of MCL-1 mRNA compared to controls (MCL-1 mRNA in A549 cells)	relative expression of MCL-1, Bcl-xL, and Bcl-2 compared β-actin over time ([2]; 0-96 hour, with and without wash step, FIG. 9A-B)	relative expression of MCL-1, Bcl-xL, and Bcl-2 compared β-actin over time ([2]; repeat dosing (three 24 hour periods, two 24 hour breaks), FIG. 12)	relative expression of MCL-1, Bcl-xL, and Bcl-2 compared β-actin over time ([3]; MV-4-11, 80 nM, 1-96 hour, FIG. 10B)	relative expression of MCL-1 compared to β-actin ([3]; MV-4-11, alvocidib 0-8 μM, 2 hrs, FIG. 10A)	relative expression of N-Myc compared β-actin over time (N-Myc in SK-N-AS cells)	relative expression of MCL-1, Bcl-xL, and Bcl-2 compared β-actin over time ([4]; 0-96 hour, with and without wash step, FIG. 13A-B)	relative expression of MCL-1, Bcl-xL, and Bcl-2 compared β-actin over time ([4]; repeat dosing regimen, FIG. 14)	relative expression of MCL-1, Bcl-xL, and Bcl-2 compared β-actin over time ([5]; 0-96 hour, with and without wash step, FIG. 15A-B)	relative expression of MCL-1, Bcl-xL, and Bcl-2 compared β-actin over time ([5]; repeat dosing regimen, FIG. 16)	relative expression of MCL-1 compared to β-actin (MCL-1 in MV-4-11 cells; MV-4-11, each treatment dosed at its 24 hour EC50, FIG. 17B)	expression of MCL-1 over the course of the ACM (or FLAM) regimen (MCL-1 in MV-4-11 cells; modeled in vitro, MV-4-11, FIG. 17A)
0.08 µM	CN1CC[C@H](c2c(O)cc(O)c3c(=O)cc(-c4ccccc4Cl)oc23)[C@H](O)C1 [alvocidib]	≤ 30 min	down-regulates MCL-1 mRNA in MV-4-11 in a time-dependent manner	down-regulates MCL-1 mRNA in MV-4-11 cells in a dose dependent manner	down-regulates MCL-1 mRNA in A549 cells in a dose dependent manner	down-regulates MCL-1 in A549 in a time-dependent manner	down-regulates MCL-1 in A549 cells in a time-dependent manner	down-regulates MCL-1 in MV-4-11 in a time-dependent manner	down-regulates MCL-1 in MV-4-11 cells in a dose dependent manner	down-regulates N-Myc in SK-N-AS cells in a time-dependent manner	down-regulates MCL-1 in Panc-1 cells in a time dependent manner	down-regulates MCL-1 in Panc-1 cells in a time-dependent manner	down-regulates MCL-1 in Yugen8 cells in a time dependent manner	down-regulates MCL-1 in Yugen8 in a time-dependent manner	lower the expression of MCL-1	represses super enhancer complex regulated genes, including expression of MCL-1
1 µM	CC(=O)c1c(C)c2cnc(Nc3ccc(N4CCNCC4)cn3)nc2n(C2CCCC2)c1=O [palbociclib]	–	–	–	–	–	–	–	–	–	–	–	–	–	–	–

Source: patent US10624880B2, “Predicting response to alvocidib by mitochondrial profiling” (Tolero Pharmaceuticals, Inc., priority 2015, dated 2020)
